The NIST ThermoML archive (doi:10.1016/j.fluid.2013.12.022)

Assay: refractive index (other wavelength) (dimensionless); xn = mol fraction of the nth substance listed
Details: 85 kPa, Liquid, Wavelength=632.8 nm, minimum deviation angle technique

CCCO [propan-1-ol] + CCCCCCCC[n+]1ccn(C)c1.F[P-](F)(F)(F)(F)F
x2 = 0
Details | refractive index
298.19 K | 1.3818
300.2 K | 1.381
302.19 K | 1.3802
304.2 K | 1.3793
306.22 K | 1.3785
308.24 K | 1.3777
310.25 K | 1.3769
312.24 K | 1.376

CC(C)(C)O [2-methylpropan-2-ol] + CCCCCCCC[n+]1ccn(C)c1.F[P-](F)(F)(F)(F)F
x2 = 0
Details | refractive index
309.16 K | 1.3775
312.05 K | 1.3759
315.18 K | 1.3742
318.15 K | 1.3725
321.11 K | 1.3708
324.42 K | 1.3689

CCCCCCCC[n+]1ccn(C)c1.F[P-](F)(F)(F)(F)F [1-octyl-3-methylimidazolium hexafluorophosphate] + CCCO
Details | refractive index
298.19 K, x1 = 1 | 1.4215
300.2 K, x1 = 1 | 1.421
302.19 K, x1 = 1 | 1.4204
304.2 K, x1 = 1 | 1.4199
305.17 K, x1 = 0.3 | 1.4047
305.17 K, x1 = 0.5 | 1.4114
305.21 K, x1 = 0.6 | 1.4137
305.22 K, x1 = 0.801 | 1.4171
305.23 K, x1 = 0.698 | 1.4154
305.26 K, x1 = 0.899 | 1.4184
305.27 K, x1 = 0.399 | 1.4084
306.18 K, x1 = 0.6 | 1.4134
306.19 K, x1 = 0.5 | 1.4111
306.2 K, x1 = 0.3 | 1.4044
306.2 K, x1 = 0.399 | 1.4081
306.2 K, x1 = 0.801 | 1.4168
306.22 K, x1 = 1 | 1.4193
306.23 K, x1 = 0.698 | 1.4151
306.25 K, x1 = 0.899 | 1.4181
307.19 K, x1 = 0.3 | 1.404
307.19 K, x1 = 0.801 | 1.4165
307.21 K, x1 = 0.399 | 1.4078
307.21 K, x1 = 0.6 | 1.4131
307.24 K, x1 = 0.698 | 1.4148
307.24 K, x1 = 0.899 | 1.4178
307.29 K, x1 = 0.2 | 1.3986
307.35 K, x1 = 0.5 | 1.4108
308.19 K, x1 = 0.5 | 1.4105
308.2 K, x1 = 0.3 | 1.4037
308.21 K, x1 = 0.801 | 1.4162
308.23 K, x1 = 0.899 | 1.4175
308.24 K, x1 = 0.698 | 1.4146
308.24 K, x1 = 1 | 1.4188
308.25 K, x1 = 0.399 | 1.4075
308.26 K, x1 = 0.2 | 1.3983
308.27 K, x1 = 0.6 | 1.4128
308.32 K, x1 = 0.1 | 1.3904
309.18 K, x1 = 0.399 | 1.4072
309.19 K, x1 = 0.3 | 1.4034
309.19 K, x1 = 0.5 | 1.4102
309.21 K, x1 = 0.6 | 1.4125
309.21 K, x1 = 0.899 | 1.4173
309.22 K, x1 = 0.698 | 1.4143
309.23 K, x1 = 0.1 | 1.3901
309.23 K, x1 = 0.801 | 1.416
309.28 K, x1 = 0.2 | 1.3979
310.11 K, x1 = 0.3 | 1.4031
310.19 K, x1 = 0.6 | 1.4122
310.2 K, x1 = 0.5 | 1.4099
310.21 K, x1 = 0.899 | 1.417
310.23 K, x1 = 0.1 | 1.3897
310.23 K, x1 = 0.698 | 1.414
310.25 K, x1 = 0.801 | 1.4157
310.25 K, x1 = 1 | 1.4183
310.26 K, x1 = 0.2 | 1.3976
310.29 K, x1 = 0.399 | 1.4069
311.2 K, x1 = 0.6 | 1.4119
311.2 K, x1 = 0.801 | 1.4154
311.2 K, x1 = 0.899 | 1.4167
311.21 K, x1 = 0.3 | 1.4027
311.21 K, x1 = 0.399 | 1.4066
311.22 K, x1 = 0.5 | 1.4096
311.24 K, x1 = 0.1 | 1.3893
311.25 K, x1 = 0.2 | 1.3973
311.25 K, x1 = 0.698 | 1.4138
312.17 K, x1 = 0.3 | 1.4024
312.17 K, x1 = 0.399 | 1.4063
312.19 K, x1 = 0.6 | 1.4116
312.19 K, x1 = 0.698 | 1.4135
312.2 K, x1 = 0.2 | 1.397
312.2 K, x1 = 0.5 | 1.4093
312.2 K, x1 = 0.801 | 1.4151
312.2 K, x1 = 0.899 | 1.4164
312.24 K, x1 = 1 | 1.4178
312.26 K, x1 = 0.1 | 1.3889
313.24 K, x1 = 0.1 | 1.3886
313.24 K, x1 = 0.2 | 1.3966

CCCCCCCC[n+]1ccn(C)c1.F[P-](F)(F)(F)(F)F [1-octyl-3-methylimidazolium hexafluorophosphate] + CC(C)(C)O
Details | refractive index
312.06 K, x1 = 1 | 1.4179
314.47 K, x1 = 1 | 1.4173
316.92 K, x1 = 1 | 1.4166
317.23 K, x1 = 0.699 | 1.4113
317.35 K, x1 = 0.803 | 1.4134
317.36 K, x1 = 0.991 | 1.4149
317.38 K, x1 = 0.398 | 1.4034
319.13 K, x1 = 0.5 | 1.4064
319.2 K, x1 = 1 | 1.416
319.25 K, x1 = 0.699 | 1.4107
319.26 K, x1 = 0.803 | 1.4129
319.3 K, x1 = 0.991 | 1.4144
319.31 K, x1 = 0.398 | 1.4028
319.63 K, x1 = 0.601 | 1.4088
320.77 K, x1 = 0.5 | 1.4059
321.17 K, x1 = 0.1 | 1.3834
321.28 K, x1 = 0.991 | 1.4139
321.32 K, x1 = 1 | 1.4155
321.34 K, x1 = 0.803 | 1.4124
321.37 K, x1 = 0.2 | 1.3919
321.38 K, x1 = 0.299 | 1.3978
321.4 K, x1 = 0.699 | 1.4102
321.46 K, x1 = 0.398 | 1.4021
321.58 K, x1 = 0.601 | 1.4083
322.42 K, x1 = 0.5 | 1.4054
322.78 K, x1 = 0.299 | 1.3972
322.79 K, x1 = 0.2 | 1.3912
322.97 K, x1 = 0.1 | 1.3826
323.23 K, x1 = 0.991 | 1.4134
323.3 K, x1 = 1 | 1.4149
323.32 K, x1 = 0.699 | 1.4097
323.32 K, x1 = 0.803 | 1.4118
323.79 K, x1 = 0.601 | 1.4077
323.84 K, x1 = 0.398 | 1.4013
324.07 K, x1 = 0.5 | 1.4049
324.29 K, x1 = 0.2 | 1.3906
324.29 K, x1 = 0.299 | 1.3967
324.43 K, x1 = 0.1 | 1.3819
325 K, x1 = 0.601 | 1.4073
325.29 K, x1 = 0.991 | 1.4128
325.3 K, x1 = 0.699 | 1.4093
325.35 K, x1 = 0.803 | 1.4113
325.38 K, x1 = 1 | 1.4143
325.78 K, x1 = 0.398 | 1.4007
325.81 K, x1 = 0.299 | 1.3963
325.82 K, x1 = 0.1 | 1.3814
325.92 K, x1 = 0.5 | 1.4043
325.95 K, x1 = 0.2 | 1.39
327.11 K, x1 = 0.699 | 1.4088
327.12 K, x1 = 0.803 | 1.4108
327.13 K, x1 = 0.601 | 1.4066
327.36 K, x1 = 0.2 | 1.3894
327.4 K, x1 = 0.991 | 1.4123
327.41 K, x1 = 1 | 1.4138
327.47 K, x1 = 0.299 | 1.3957
327.72 K, x1 = 0.398 | 1.4
327.74 K, x1 = 0.5 | 1.4037
327.97 K, x1 = 0.1 | 1.3804
328.85 K, x1 = 0.601 | 1.4061
329.18 K, x1 = 0.1 | 1.3797
329.18 K, x1 = 0.2 | 1.3887
329.26 K, x1 = 0.299 | 1.3951
